Patent US20250154358A1, “ORGANIC DYE COMPOSITION, AND SPRAY AGENT COMPRISING SAME” (PANASONIC INTELLECTUAL PROPERTY MANAGEMENT CO., LTD., priority 2022, published 2025)

Legend:
[1] = system: E. coli; assay: Color change observation after spraying on bacterial liquid (E. coli); format: cell-based; conditions: detection of E. coli; statement in the discussion
Experimental: 100 μL of a bacterial liquid (E. coli, […]) was added dropwise onto a slide glass. Then, a sample solution (organic dye composition) of each of Examples and Comparative Examples was placed in a spray bottle (φ39×147 mm, capacity 100 ml), and sprayed (one push) to the bacterial liquid on the slide glass. Thereafter, after leaving for 15 minutes, the following fluorescence observation and color change observation were performed. • Fluorescence observation (visual visibility)
For fluorescence observation, the sprayed part was irradiated with an LED light (530 nm output, color: green), and visual observation was performed through a red filter. The evaluation criteria were as follows. • good: Emission of the solution can be clearly visually recognized • fair: Emission of the solution can be visually recognized but very weak • poor: Emission of the solution cannot be visually recognized • Color change • Color change was visually observed and evaluated according to the following criteria: • good: Color change of the solution can be clearly visually recognized • fair: Color change of the solution can be visually recognized but very weak • poor: Color change of the solution cannot be visually recognized or no color change occurs

[2] = system: Staphylococcus aureus; assay: Color change observation after spraying on bacterial liquid (Staphylococcus aureus); format: cell-based; conditions: detection of S. aureus; statement in the discussion

For `CC(C)COC(=O)Oc1ccc2nc3ccc(=O)cc-3oc2c1` [Formula (4)], the “color change, compared with the dye represented by Formula (2)” value [1] was “more clearly visually recognized” and the “color change, compared with the dye represented by Formula (2)” value [2] was “more clearly visually recognized”.
